The target of assay [1] is T1, 5-LO (Rattus norvegicus, UniProt P12527).
T1 construct: an air pouch generated within the subcutaneous tissue of the back of male rats; endogenous in cells; host or cells: cells of the zymosan-inflamed air pouch of live male rats
T1 sequence (P12527 1-673): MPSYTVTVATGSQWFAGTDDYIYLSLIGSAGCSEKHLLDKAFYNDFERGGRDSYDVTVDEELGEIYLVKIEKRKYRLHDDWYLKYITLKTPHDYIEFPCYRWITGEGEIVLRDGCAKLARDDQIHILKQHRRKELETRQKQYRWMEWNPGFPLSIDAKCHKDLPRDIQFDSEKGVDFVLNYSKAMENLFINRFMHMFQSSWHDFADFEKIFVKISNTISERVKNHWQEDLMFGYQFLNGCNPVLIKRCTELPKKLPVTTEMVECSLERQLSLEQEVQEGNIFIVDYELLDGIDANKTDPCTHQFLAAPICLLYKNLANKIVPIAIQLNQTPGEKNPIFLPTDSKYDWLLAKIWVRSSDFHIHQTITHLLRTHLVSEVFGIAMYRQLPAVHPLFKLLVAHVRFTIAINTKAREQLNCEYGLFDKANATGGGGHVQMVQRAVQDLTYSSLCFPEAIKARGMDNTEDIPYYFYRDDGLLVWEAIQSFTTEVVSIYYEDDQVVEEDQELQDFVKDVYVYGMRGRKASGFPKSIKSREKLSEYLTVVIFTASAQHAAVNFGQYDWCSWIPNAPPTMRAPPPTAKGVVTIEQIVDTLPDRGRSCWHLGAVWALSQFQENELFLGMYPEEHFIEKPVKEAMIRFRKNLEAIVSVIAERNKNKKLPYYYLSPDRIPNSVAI
Put plainly: Test c) in vivo zymosan-induced LTB4 liberation in rat air pouch, oral compound. Particulars: 3 h; test c). The protocol: c) An in vivo system involving measuring the effects of a test compound administered orally against the liberation of LTB4 induced by zymosan within an air pouch generated within the subcutaneous tissue of the back of male rats. The rats are anaesthetised and air pouches are formed by the injection of sterile air (20 ml). A further injection of air (10 ml) is similarly given after 3 days. At 6 days after the initial air injection the test compound is administered (usually orally as the suspension produced when a solution of the test compound in dimethylsulphoxide is added to hydroxypropylmethylcellulose), followed by the intrapouch injection of zymosan (1 ml of a 1% suspension in physiological saline). After 3 hours the rats are killed, the air pouches are lavaged with physiological saline, and the specific radioimmunoassay described above is used to assay LTB4 in the washings. This test provides an indication of inhibitory effects against 5-LO in an inflammatory milieu.

The target of assay [2] is T2, 5-LO (Homo sapiens, UniProt P09917).
T2 construct: incubating a test compound with heparinised human blood; endogenous in cells; host or cells: blood cells in heparinised human whole blood
T2 sequence (P09917 1-674): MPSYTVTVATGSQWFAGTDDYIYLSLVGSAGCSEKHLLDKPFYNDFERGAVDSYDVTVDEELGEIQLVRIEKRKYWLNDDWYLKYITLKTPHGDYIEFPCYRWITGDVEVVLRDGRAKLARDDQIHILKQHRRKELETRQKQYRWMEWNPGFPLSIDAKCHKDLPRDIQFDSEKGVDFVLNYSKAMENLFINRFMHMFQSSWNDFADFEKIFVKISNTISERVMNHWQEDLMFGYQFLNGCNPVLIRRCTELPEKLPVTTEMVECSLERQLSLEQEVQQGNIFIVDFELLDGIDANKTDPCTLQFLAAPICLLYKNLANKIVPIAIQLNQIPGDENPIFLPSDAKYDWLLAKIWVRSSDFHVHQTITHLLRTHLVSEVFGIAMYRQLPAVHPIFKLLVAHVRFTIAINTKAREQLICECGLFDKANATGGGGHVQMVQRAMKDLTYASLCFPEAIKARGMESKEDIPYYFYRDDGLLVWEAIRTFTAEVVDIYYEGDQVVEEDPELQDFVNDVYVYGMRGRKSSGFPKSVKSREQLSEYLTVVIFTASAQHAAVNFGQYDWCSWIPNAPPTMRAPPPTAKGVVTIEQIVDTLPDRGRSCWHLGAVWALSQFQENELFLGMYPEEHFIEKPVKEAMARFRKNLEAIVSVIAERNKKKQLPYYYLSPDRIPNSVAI
Put plainly: Test a) in vitro inhibition of LTB4 formation in heparinised human blood challenged with A23187 (radioimmunoassay). It counts as cell-based. The protocol:
a) An in vitro assay system involving incubating a test compound with heparinised human blood, prior to challenge with the calcium ionophore A23187 and then indirectly measuring the inhibitory effects on 5-LO by assaying the amount of LTB4 using specific radioimmunoassays described by Carey and Forder (Prostaglandins, Leukotrienes Med., 1986, 22, 57; Prostaglandins, 1984, 28, 666; Brit. J. Pharmacol., 1985, 84, 34P) which involve the use of a protein-LTB4 conjugate produced using the procedure of Young et alia (Prostaglandins, 1983, 26(4), 605-613). The effects of a test compound on the enzyme cyclooxygenase (which is involved in the alternative metabolic pathway for arachidonic acid and gives rise to prostaglandins, thromboxanes and related metabolites) may be measured at the same time using the specific radioimmunoassay for thromboxane B2 (TxB2) described by Carey and Forder (see above). This test provides an indication of the effects of a test compound against 5-LO and also cyclooxygenase in the presence of blood cells and proteins. It permits the selectivity of the inhibitory effect on 5-LO or cyclooxygenase to be assessed.

On to `COC1(c2cccc(Sc3ccc(N(C)S(C)(=O)=O)cc3Cl)c2)CCOCC1` [N-{3-chloro-4-[3-(4-methoxytetrahydropyran-4-yl)phenylthio]phenyl}-N-methylmethanesulphonamide], for which, at 5-LO [1], the ED50 came to 1 mg/kg. It took 90 nM to reach half-maximal inhibition against 5-LO [2] (IC50).

For `COC1(c2cccc(Sc3ccc(NS(C)(=O)=O)c(Cl)c3)c2)CCOCC1` [N-{2-chloro-4-[3-(4-methoxytetrahydropyran-4-yl)phenylthio]phenyl)-methanesulphonamide], at 5-LO [1], the 50% effective dose (ED50) worked out at 1.5 mg/kg. The molecule also came in with an IC50 against 5-LO [2] of 1000 nM.

(Values after patent publication US5236948A, “Sulphonamide derivatives” (Imperial Chemical Industries PLC, priority 1991, dated 1993).)
